Like-named read-outs stand apart in the source and are kept apart here.
Tests used:
C. albicans biofilms = assay: Anti-biofilm assay, Presto Blue viability; assay type: cell-based, Candida albicans; conditions: 24 h biofilm, 24 h treatment at 37°C in RPMI (132.1 mM sodium), twofold dilution from 300 μg/mL
S. aureus ATCC 9144 = assay type: cell-based, Staphylococcus aureus; conditions: ½ PDB adjusted to pH 7, no added NaCl; OD595, 24 h
C. tropicalis ATCC 750 = assay type: cell-based, Candida tropicalis; conditions: OD595, 24 h
[1] = tested on: E. coli, B. subtilis, S. aureus, and P. aeruginosa; assay type: cell-based; conditions: ½ PDB, pH 7; range over four bacteria
C. glabrata ATCC 90030 = assay type: cell-based, Candida glabrata; conditions: OD595, 24 h
S. aureus = conditions: assays conducted in LB; ref van der Weerden et al., 2008; cited from earlier work
From the text: (§1) The antibacterial activity of ZmD32 and NaD1 adds to a growing list of antibacterial defensins ([Sathoff and Samac, 2018]; [Sathoff et al., 2018]; [Velivelli et al., 2018]), a protein family that is best known for antifungal activity ([van der Weerden and Anderson, 2013]; [van der Weerden et al., 2013]; [Parisi et al., 2018]). The lack of reported antibacterial activity for plant defensins likely reflects the medium used for antibacterial assays, Here the ½ PDB pH 7 medium has a NaCl concentration of less than 10 mM. This concentration is considerably lower than growth media often used in anti ...

E. coli [2] = conditions: assays conducted in LB; ref van der Weerden et al., 2008; cited from earlier work
From the text: as §1

C. parapsilosis = assay type: cell-based, Candida parapsilosis; conditions: OD595, 24 h
[3] = tested on: prostate cancer (PC3) cells; assay: MTT cell viability assay, PC3; conditions: 48 h, twofold dilution series from 50 μM down, three independent replicates
Method: (§2) Leukemia monocyte lymphoma (U937) cells and prostate cancer (PC3) cells were cultured in RPMI-1640 medium (Sigma) buffered to pH 7.2 with HEPES and supplemented with 5–10% (v/v) fetal calf serum (FCS), 100 U/mL penicillin (Sigma) and 100 μg/mL streptomycin (Invitrogen). […] All cell lines were cultured at 37°C in a humidified atmosphere containing 5% CO2. Cell viability assays were performed using an MTT assay as described in ([Poon et al., 2014]). […] IC50 values were determined using GraphPad Prism 5 (GraphPad Software, CA, United States).

F. graminearum PH-1 = assay type: cell-based, Fusarium graminearum; conditions: ½ PDB, no added NaCl; 5 × 10^4 spores/mL; OD595, 24 h
P. aeruginosa PAO1 = assay type: cell-based, Pseudomonas aeruginosa; conditions: ½ PDB adjusted to pH 7, no added NaCl; OD595, 24 h
B. subtilis = assay type: cell-based, Bacillus subtilis; conditions: ½ PDB adjusted to pH 7, no added NaCl, OD595, 24 h
C. auris = assay type: cell-based, Candida auris; conditions: OD595, 24 h
C. krusei = assay type: cell-based, Candida krusei; conditions: OD595, 24 h
C. albicans ATCC 90028 = assay type: cell-based, Candida albicans
[4] = tested on: Leukemia monocyte lymphoma (U937) cells; assay: MTT cell viability assay, U937; conditions: 48 h, twofold dilution series from 50 μM down, three independent replicates
Method: as §2

E. coli [5] = assay type: cell-based, Escherichia coli; conditions: strain TOP10, OD595, 24 h
[6] = Membrane lipid binding assay (protein-lipid overlay); conditions: detected with α-NaD2 (ZmD32) or α-NaD1 (NaD1) antibody; representative of three independent experiments
Method: Lipid binding assays were performed using Membrane Lipid Strips (Echelon Biosciences) as described in ([Poon et al., 2014]). ZmD32 binding to the lipids on the strips was detected using a polyclonal antibody generated in rabbits to the defensin NaD2 with which it shares 78.7% amino acid sequence identity ([Dracatos et al., 2014]). […] Lipid binding of NaD1 was performed as described in ([Poon et al., 2014]).

[7] = ½ PDB + 100 mM NaCl, read-out: NaCl IC50
[8] = ½ PDB, no added NaCl, read-out: IC50

Method for human red blood cells: Human blood was obtained from the Australian Red Cross Blood Service (Melbourne, VIC, Australia) under Material Supply Agreement 14-11VIC-03. Hemolytic activity of defensins was assessed as described in ([Evans et al., 2013]). The degree of red blood cell (RBC) lysis was measured by absorbance at 412 nm, relative to water-lysed RBCs.

Question: For “NaD1: well-characterized antifungal plant defensin from Nicotiana alata floral tissues or recombinant from Pichia pastoris; used as standard (RECKTESNTFPGICITKPPCRKACISEKFTDGHCSKILRRCLCTKPC; UniProt Q8GTM0 26-72, looked up)”, which “Activity against established C. albicans biofilms” value (C. albicans biofilms) is on record?
Answer: no activity

Question: What about the IC50 (S. aureus ATCC 9144) of the same substance?
Answer: 5 ± 0.5 µM

Question: And the IC50 (C. tropicalis ATCC 750; [7])?
Answer: 1.3 ± 0.5 µM

Question: And the IC50 (C. tropicalis ATCC 750; [8])?
Answer: 0.4 ± 0.1 µM

Question: What about the IC50 [1] of the same substance?
Answer: 2 to 5 µM

Question: What about the IC50 (C. glabrata ATCC 90030; [7]) of the same substance?
Answer: > 10 µM

Question: And the IC50 (C. glabrata ATCC 90030; [8])?
Answer: 2.8 ± 1 µM

Question: And the “Activity against S. aureus” value (S. aureus)?
Answer: no activity

Question: And the “Activity against E. coli” value (E. coli [2])?
Answer: no activity

Question: What about the IC50 (C. parapsilosis; [7]) of the same substance?
Answer: 3.4 ± 1.2 µM

Question: What about the IC50 (C. parapsilosis; [8]) of the same substance?
Answer: 1.2 ± 0.3 µM

Question: What about the “Effect on viability of PC3 cells” value [3] of the same substance?
Answer: decreased viability of all three cell lines at much lower concentrations than ZmD32

Question: And the IC50 (F. graminearum PH-1)?
Answer: 1 ± 0.5 µM

Question: And the IC50 (P. aeruginosa PAO1)?
Answer: 4.3 ± 0.3 µM

Question: And the IC50 (B. subtilis)?
Answer: 2 ± 0.2 µM

Question: What about the IC50 (C. auris; [7]) of the same substance?
Answer: > 10 µM

Question: What about the IC50 (C. auris; [8]) of the same substance?
Answer: 2.9 ± 0.5 µM

Question: What about the IC50 (C. krusei; [7]) of the same substance?
Answer: > 10 µM

Question: What about the IC50 (C. krusei; [8]) of the same substance?
Answer: 1.2 ± 0.4 µM

Question: And the “Activity against C. albicans in the presence of divalent metal salts” value (C. albicans ATCC 90028; 5 mM MgCl2 or 2 mM CaCl2, data not shown)?
Answer: lost activity

Question: What about the IC50 (C. albicans ATCC 90028; read-out: IC50) of the same substance?
Answer: 1.6 ± 0.4 µM

Question: What about the IC50 (C. albicans ATCC 90028; read-out: NaCl IC50) of the same substance?
Answer: > 10 µM

Question: What about the “Effect on viability of U937 cells” value [4] of the same substance?
Answer: decreased viability of all three cell lines at much lower concentrations than ZmD32

Question: What about the IC50 (E. coli [5]; ½ PDB adjusted to pH 7 + 100 mM NaCl, read-out: NaCl IC50) of the same substance?
Answer: > 10 µM

Question: And the IC50 (E. coli [5]; ½ PDB adjusted to pH 7, no added NaCl, read-out: IC50)?
Answer: 4.6 ± 1.6 µM

Question: And the “Lipids bound on membrane lipid strip” value [6]?
Answer: bound preferentially to phosphatidylinositol-4,5-bisphosphate [PI(4,5)P2] but also bound to phosphatidic acid (PA) and cardiolipin

Question: And the “Red blood cells lysed at concentrations up to 50 μM” value (human red blood cells)?
Answer: ≤ 2%

Reference: publication PMC6474387, “Salt-Tolerant Antifungal and Antibacterial Activities of the Corn Defensin ZmD32” (Frontiers in Microbiology, 2019)
